Legend:
α-glucosidase = experiment: Measurement of α-glucosidase activity (p-nitrophenyl-α-D-glucopyranoside substrate, A405 nm); type: biochemical, yeast; settings: for α-glucosidase inhibitory activity (% inhibition): at 5 mg/ml (samples adjusted to 50 mg/ml H2O), duplicate, FIG. 29
Description: 1. 0.1 M sodium phosphate buffer (a mixture of 0.1 M NaH2PO4.2H2O and 0.1 M Na2HPO4.12H2O, adjusted to pH 7.0) was supplemented with 2 g/L bovine serum albumin (a product of Nacalai Tesque, Inc., Japan, F-V, pH 5.2, purity: 96%) and 0.2 g/L NaN3 (a product of Nacalai Tesque, Inc., Japan, reagent grade). As an enzyme solution, α-glucosidase (a product of Wako Pure Chemical Industries, Ltd., Japan, derived from yeast, 100 units/mg) was dissolved in the above buffer at 0.5 units/mg protein/ml (100 μg/20 ml). As a substrate solution, p-nitrophenyl-α-D-glucopyranoside (a product of Nacalai Tesque, Inc., Japan, reagent grade) was dissolved in the above buffer at 5 mM (7.525 mg/5 ml). 2. For use as samples, GF (I) purified in Example 3 was adjusted to 200 mg/ml H2O and diluted two-fold to give 6 dilutions. Using a 96-well microplate, the enzyme solution (45 μL) was added to each of the sample solutions (10 μL) and pre-incubated at 37° C. for 5 minutes. After addition of the substrate solution (45 μL), each sample was measured for absorbance A405 nm (A405 nm at 0 min) and, after incubation at 37° C. for 5 minutes, was then measured for absorbance A405 nm (A405 nm at 5 min). As a control, H2O was added in place of the samples and measured for absorbance. The difference in A405 nm from the control was calculated as % inhibition. Activity measurement was made in quadruplicate. 3. […] As comparative samples, X2 (xylobiose) and glucuronic acid (Sigma-Aldrich) were neutralized with NaOH and adjusted to 50 mg/ml H2O (calculated based on the amount of glucuronic acid). […] After addition of the substrate solution (45 μl), each of the samples was measured for absorbance A405 nm (A405 nm at 0 min) and, after incubation at 37° C. for 5 minutes, was then measured for absorbance A405 nm (A405 nm at 5 min). As a control, H2O was added in place of the samples, and the difference in A405 nm from the control was calculated as % inhibition. […]

[1] = target: T1, porcine pancreatic lipase (Sus scrofa, UniProt P00591); experiment: Measurement of lipase inhibitory activity (4-methylumbelliferone oleic acid ester, fluorescence); type: biochemical; settings: at 4 mg/ml final concentration, FIG. 30
T1 construct: purchased SIGMA
T1 sequence (P00591 1-450): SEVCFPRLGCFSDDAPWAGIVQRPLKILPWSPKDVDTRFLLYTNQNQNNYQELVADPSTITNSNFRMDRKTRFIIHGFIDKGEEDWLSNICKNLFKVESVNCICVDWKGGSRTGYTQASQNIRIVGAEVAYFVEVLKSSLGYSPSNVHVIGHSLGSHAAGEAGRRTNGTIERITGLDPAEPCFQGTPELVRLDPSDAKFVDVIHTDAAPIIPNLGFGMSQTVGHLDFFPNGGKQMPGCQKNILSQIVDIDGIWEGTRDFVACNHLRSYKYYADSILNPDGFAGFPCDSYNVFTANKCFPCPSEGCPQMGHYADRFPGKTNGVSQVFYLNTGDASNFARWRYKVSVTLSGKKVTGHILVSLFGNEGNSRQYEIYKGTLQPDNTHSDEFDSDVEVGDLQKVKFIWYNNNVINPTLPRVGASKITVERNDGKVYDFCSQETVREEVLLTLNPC
Description: 1. In a 96-well flat-bottomed plate, GF (I) prepared in Example 3, as well as the GSFaF (VII)-containing fraction and the GSF fraction containing (V) and GSFF (VI) prepared in Example 4 were each adjusted to give a final concentration of 4 mg/ml (25 μl), followed by addition of 50 μl buffer (130 mM Tris-HCl buffer (pH 8.0, containing 150 mM NaCl and 1.36 mM CaCl2)) and 25 μl 4-methylumbelliferone oleic acid ester (SIGMA, final concentration: 100 μM). The plate was allowed to stand for 30 minutes at room temperature. Then, lipase (porcine pancreatic lipase, SIGMA) was added in a volume of 50 μl (final concentration: 100 U/ml) to initiate the reaction. 2. After 30 minutes, 100 μl citrate buffer (pH 4.2) was added to stop the reaction. The fluorescence intensity of 4-methylumbelliferone generated by the reaction (excitation wavelength: 355 nm, fluorescence wavelength: 460 nm) was measured with a fluorescence plate reader (Fluoroskan Asent CF, Labsystems). 3. As a control, water was used in place of the samples. As a blank, water was used in place of the samples and buffer was used in place of lipase. The following equation was used to calculate lipase inhibitory activity. 4. Calculation equation
Lipase inhibitory activity (%)=100−(A−B)/(C−B)×100
A: fluorescence intensity in sample, B: fluorescence intensity in blank, C: fluorescence intensity in control

α-glucosidase inhibitory activity (% inhibition) (α-glucosidase) [%]	α-glucosidase IC50 (α-glucosidase; GF (I) purified in Example 3, 6 two-fold dilutions, quadruplicate) [mg/mL]	inhibition at 4000 µg/mL [1] [%]	Compound
8	–	–	O=C(O)[C@H]1OC(O)[C@H](O)[C@@H](O)[C@@H]1O (stereo partly shown) [glucuronic acid]
–	20.4	81	CC1OC(O)C(OC2OC(C(=O)O)C(O)C(O)C2O)C(O)C1O [GF (I), α-D-GlcA-(1→2)-L-Fuc]
10.15	–	–	OC1OC[C@@H](O[C@@H]2OC[C@@H](O)[C@H](O)[C@H]2O)[C@H](O)[C@H]1O (stereo partly shown) [X2, xylobiose]

Source: patent publication US20100113390A1, “OLIGOSACCHARIDES DERIVED FROM FUCOIDAN” (SUNTORY HOLDINGS LIMITED, priority 2007, published 2010)
